Assay results published in patent publication US20080287445A1, “Prokineticin 2 receptor antagonists” (priority 2005, published 2008).
Values joined by “and” are separate entries in the source; they are usually repeats but may differ in a detail not shown here. Equal values may be shown once.

B1: PK1: Recombinant human prokineticin-1 expressed in HEK 293 cells, FLAG epitope cleaved; preparation holds full-length and a four C-terminal residue truncated product (protein, UniProt P58294 20-105, looked up)
Prokineticin-1: AVITGACERDVQCGAGTCCAISLWLRGLRMCTPLGREGEECHPGSHKVPFFRKRKHHTCPCLPNLLCSRFPDGRYRCSMDLKNINF
modifications: mixture with C-terminally truncated product

How the values were obtained:
[1] = tested on: Cholera toxin evoked increase in baseline Isc; parameters: species or system rat
[2] = biological target: T1, GPR73 (prokineticin 1 receptor) (Homo sapiens, UniProt Q8TCW9); test: PK1 functional assay: Ca2+ mobilization screening for PK1 antagonists on the FLIPR; assay type: cell-based; details: HEK 293 GPR73 cells, multiple values = multiple testing; for inhibition at 10 µM: HEK293, 10 μM compound, read-out: Ca^2+ Mobilization % Inh @ 10 μM; for IC50: PK1 ligand preparation at its EC50, read-out: Ca^2+ Mobilization IC50
T1 construct: expressed in transfected cells; host or cells: HEK 293
Method in brief: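 HEK293 cells expressing human GPR73 were loaded with Calcium Plus dye, then on FLIPR given compound for 4 min 15 s before PK1 ligand at its predetermined EC50. Baseline-subtracted fluorescence over 1 min 45 s gave percent inhibition versus maximal signal; IC50 fitted.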

[3] = tested on: ileum mucosal tissues from PK1 receptor knock-out mice; test: PK1-evoked Isc in ileum mucosal tissues from PK1 receptor knock-out mice; details: exogenous PK1 peptide

T1 sequence (Q8TCW9 whole entry, species assumed): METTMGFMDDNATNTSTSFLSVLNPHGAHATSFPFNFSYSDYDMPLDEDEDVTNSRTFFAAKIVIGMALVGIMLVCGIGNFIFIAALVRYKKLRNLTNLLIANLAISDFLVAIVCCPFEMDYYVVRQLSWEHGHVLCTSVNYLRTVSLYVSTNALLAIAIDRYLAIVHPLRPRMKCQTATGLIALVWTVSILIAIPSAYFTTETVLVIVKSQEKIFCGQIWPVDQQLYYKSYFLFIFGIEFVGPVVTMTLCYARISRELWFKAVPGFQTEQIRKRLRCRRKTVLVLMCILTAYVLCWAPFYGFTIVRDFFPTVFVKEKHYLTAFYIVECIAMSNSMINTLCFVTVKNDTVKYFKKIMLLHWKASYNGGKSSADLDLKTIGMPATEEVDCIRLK

Molecule | suppression of Cholera toxin-evoked increase in Isc (in words) [1] | suppression of sustained increase in baseline Isc evoked by Cholera toxin [1] | Ca^2+ Mobilization % Inh @ 10 μM ([2]; 10 μM compound, 10 µM) | inhibition at 10 µM [2] | IC50 [2] | change in Isc compared to wild-type littermates [3]
COc1ccc(Cn2c(NCc3cccnc3N)nc(=O)n(Cc3ccc(OC)cc3)c2=O)cc1 [Cpd 3, 6-[(2-Amino-pyridin-3-ylmethyl)-amino]-1,3-bis-(4-methoxy-benzyl)-1H-[1,3,5]triazine-2,4-dione] | suppresses | 50-60% | 94% and 100% | 83% | 34 nM and 61 nM and 82 nM | –
COCCCCCn1c(NCc2cccnc2N)nc(=O)n(Cc2ccc(OC(F)F)cc2)c1=O [Cpd 257] | – | – | – | 76% | 1520 nM | –
Cc1cnc(CNc2nc(=O)n(Cc3ccc4c(c3)CCO4)c(=O)n2Cc2ccc(OC(F)F)cc2)cn1 [Cpd 261] | – | – | – | 87% | 772 nM | –
Cc1cc(-c2ccc(F)cc2)nc(N)c1CNc1nc(=O)n(Cc2ccc3c(c2)CCO3)c(=O)n1Cc1ccc(OC(F)F)cc1 [Cpd 262] | – | – | – | 0.89% | > 10000 nM | –
COc1ccc(Cn2c(NCc3c(N)nc(C)c(C)c3C)nc(=O)n(Cc3ccc(OC)cc3)c2=O)cc1 [Cpd 263] | – | – | – | 99% | 94 nM | –
COc1ccc(Cn2c(NCc3c(N)nc4c(c3C)CCC4)nc(=O)n(Cc3ccc(OC)cc3)c2=O)cc1 [Cpd 264] | – | – | – | 95% | 74 nM | –
CCCc1cc(CCC)c(CNc2nc(=O)n(Cc3ccc(OC)cc3)c(=O)n2Cc2ccc(OC)cc2)c(N)n1 [Cpd 265] | – | – | – | 95% | 441 nM | –
COc1ccc(Cn2c(NCc3cccc(C)n3)nc(=O)n(Cc3ccc(OC)cc3)c2=O)cc1 [Cpd 267] | – | – | – | 10% | > 10000 nM | –
Nc1cc(Cn2c(=O)nc(NCc3cccnc3N)n(Cc3ccc(OC(F)F)cc3)c2=O)ccc1O [Cpd 268] | – | – | – | 24% | > 10000 nM | –
Nc1cc(Cn2c(=O)nc(NCc3cccnc3N)n(Cc3ccc4c(c3)CCO4)c2=O)ccc1O [Cpd 269] | – | – | – | 22% | > 10000 nM | –
Cc1cc(COCc2ccccc2)c(CNc2nc(=O)n(Cc3ccc4c(c3)CCO4)c(=O)n2Cc2ccc(OC(F)F)cc2)c(N)n1 [Cpd 270, 6-[(2-Amino-4-benzyloxymethyl-6-methyl-pyridin-3-ylmethyl)-amino]-1-(4-difluoromethoxy-benzyl)-3-(2,3-dihydro-benzofuran-5-ylmethyl)-1H-[1,3,5]triazine-2,4-dione] | – | – | – | 12% | > 10000 nM | –
B1 | – | – | – | – | – | failed to elicit a significant change in Isc
